Reference: patent US20040053928A1, “Quinoline derivatives as antibacterials” (priority 2000, published 2004)
Structures can show the parent of a compound that is named as a salt.

Assay: MIC of test compounds against various organisms
Type: cell-based
Settings: against one or more of the above range of gram positive and gram negative bacteria
Description: The MIC (μg/ml) of test compounds against various organisms was determined:
S. aureus Oxford, S. aureus WCUH29, S. pneumoniae 1629, S. pneumoniae N1387, S. pneumoniae ERY 2, E. faecalis 1, E. faecalis 7, H. influenzae Q1, H. influenzae NEMC1, M. catarrhalis 1502, E. coil 7623, E.coli 120.

Row | MIC [µg/mL] | Structure (SMILES)
1 | ≤ 32 | COc1ccc2nccc([C@@H](O)CN3CCC(N(C)CC(=O)Nc4ccccc4)CC3)c2c1.O=C(O)C(=O)O.O=C(O)C(=O)O [Example 12, 2-{1-[(R)-2-Hydroxy-2-(6-methoxy-quinolin-4-yl)-ethyl]-piperidin-4-yl-N-methylamino}-N-phenyl-acetamide dioxalate]
2 | ≤ 32 | CCOC(=O)C1CN(C(=O)Nc2ccnc3ccc(OC)cc23)CCC1NCC(=O)Nc1ccccc1 (racemic) [Example 5, cis-3-(R/S)-Ethoxycarbonyl-4-(S/R)-(phenylcarbamoylmethyl-amino)-piperidine-1-carboxylic acid (6methoxy-quinolin-4-yl)-amide oxalate]
3 | ≤ 2 | COc1ccc2nccc(CCN3CCC(NCC(=O)Nc4ccc(F)cc4)CC3)c2c1 [Example 42, N-(4-Fluoro-phenyl)-2-{1-[2-(6-methoxy-quinolin-4-yl)-ethyl]-piperidin-4-ylamino}-acetamide dioxalate]
4 | ≤ 32 | COc1ccc2nccc([C@@H](O)CN3CCC(NCC(=O)Nc4cccc(C#N)c4)CC3)c2c1 [Example 34, N-[3-Cyano-phenyl]-2-{1-[(R)-2-hydroxy-2-(6-methoxy-quinolin-4-yl)-ethyl]-piperidin-4-ylamino)-acetamide dioxalate]
5 | ≤ 2 | COc1ccc2nccc(NC(=O)N3CCC(NCCCc4ccco4)C(CO)C3)c2c1 (racemic) [Example 53, cis-4-(S/R)-[3-(2-Furyl)-propyl]amino-3-(R/S)-hydroxymethyl-[6-methoxyquinolin-4-yl)]aminocarbonylpiperidine oxalate]
6 | ≤ 2 | COc1ccc2nccc([C@@H](O)CN3CCC(NCC(=O)Nc4ccccc4)C(C(N)=O)C3)c2c1 (mixture of isomers) [Example 4, cis-2-{1-[2-(R)-Hydroxy-2-(6-methoxy-quinolin-4-yl)-ethyl]-3-(R/S)-aminocarbonyl-piperidin-4-(S/R)-ylamino}-N-phenyl-acetamide dioxalate]
7 | ≤ 0.25 | COc1ccc2nccc([C@@H](O)CN3CCC(NCC(=O)Nc4ccccn4)CC3)c2c1 [Example 13, 2-{1-[(R)-2-Hydroxy-2-(6-methoxy-quinolin-4-yl)-ethyl]-piperidin-4-ylamino}-N-pyridin-2-yl-acetamide dioxalate]
8 | ≤ 32 | COc1ccc2nccc([C@@H](O)CN3CCC(NCC(=O)Nc4ccc(F)c([N+](=O)[O-])c4)CC3)c2c1 [Example 36, N-[4-Fluoro-3-nitro-phenyl]-2-{1-[(R)-2-hydroxy-2-(6-methoxyquinolin-4-ethyl]-piperidin-4-ylamino)-acetamide dioxalate]
9 | ≤ 0.25 | COc1cc(F)c2nccc([C@@H](O)CN3CCC(NCCOc4ccccn4)CC3)c2c1 [Example 74, 4-[2-(Pyridin-2-yloxy)-ethylamino]-1-[2-(R)-hydroxy-2-(8-fluoro-6-methoxyquinolin-4-yl)]ethylpiperidine dioxalate]
10 | ≤ 0.25 | COc1ccc2nccc([C@@H](O)CN3CCC(NCC(=O)Nc4cc(F)cc(F)c4)CC3)c2c1 [Example 29, N-(3,5-Difluoro-phenyl)-2-{1-[(R)-2-hydroxy-2-(6-methoxy-quinolin-4-yl)-ethyl]-piperidin-4-ylamino)-acetamide dioxalate]
11 | ≤ 0.25 | COc1ccc2nccc([C@@H](O)CN3CCC(NC/C=C/c4ccccc4[N+](=O)[O-])CC3)c2c1 [Example 54, 4-[trans-1-(2-Nitrophenyl)-3-propeny]amino-1-[2-(R)-hydroxy-2-(6-methoxyquinolin-4-yl)]ethylpiperidine dioxalate]
12 | ≤ 0.25 | COc1ccc2nccc([C@@H](O)CN3CCC(NCC(=O)Nc4ccccc4)CC3)c2c1 [Example 1, 2-{1-[(R)-2-Hydroxy-2-(6-methoxy-quinoin-4-yl)-ethyl]-piperidin-4-ylamino}-N-phenyl-acetamide dioxalate]
13 | ≤ 2 | COc1ccc2nccc([C@@H](O)CN3CCC(NCC(=O)Nc4ccccc4)C(CO)C3)c2c1 (mixture of isomers) [Example 3, cis-2-{1-[2-(R)-Hydrxy-2-(6-methoxy-quinolin-4-yl)-ethyl]-3-(R/S)-hydroxymethyl-piperidin-4-(S/R)-ylamino}-N-phenyl-acetamide dioxalate]
14 | ≤ 0.25 | COc1ccc2nccc([C@@H](O)CN3CCC(NCC(=O)Nc4ccccc4[N+](=O)[O-])CC3)c2c1 [Example 20, 2-{1-[(R)-2-Hydroxy-2-(6-methoxy-quinolin-4-yl-ethyl]-piperidin-4-ylamino}-N-(2nitro-phenyl)-acetamide dioxalate]
15 | ≤ 0.25 | COc1ccc2nccc([C@@H](O)CN3CCC(NCC(=O)Nc4ccc(F)c(F)c4)CC3)c2c1 [Example 17, N-(3,4-Difluoro-phenyl)-2-{1-[(R)-2-hydroxy-2-(6-methoxy-quinolin-4-yl-ethyl]-piperidin-4-ylamino)-acetamide dioxalate]
16 | ≤ 2 | COc1ccc2nccc([C@@H](O)CN3CCC(NCC(=O)Nc4ccc(F)cc4)CC3)c2c1 [Example 41, N-(4-Fluoro-phenyl)-2-{1-[(R)-2-hydroxy-2-(6-methoxy-quinlin-4-yl)-ethyl]-piperidin-4-ylamino}-acetamide dioxalate]
17 | ≤ 32 | COc1ccc2nccc([C@@H](O)CN3CCC(NCCCn4cc(F)c(=O)[nH]c4=O)CC3)c2c1 [Example 75, 5-Fluoro-1-(3-{1-[(R)-2-hydroxy-2-(6-methoxy-quinolin-4-yl)-ethyl]piperidin-4-ylamino}-propyl)-1H-pyrimidine-2,4-dione dioxolate]
18 | ≤ 0.25 | COc1ccc2nccc([C@@H](O)CN3CCC(NCC(=O)Nc4ccccc4C#N)CC3)c2c1 [Example 19, N-(2Cyano-phenyl)-2-{1-[(R)-2-hydroxy-2-(6-methoxy-quinolin-4-yl-ethyl]-piperidin-4-ylamino)-acetamide dioxalate]
19 | ≤ 2 | COc1ccc2nccc([C@@H](O)CN3CCC(NCC(=O)Nc4ccc(Cl)c(Cl)c4)CC3)c2c1 [Example 18, N-(3,4-Dichloro-phenyl)-2-{1-[(R)-2-hydroxy-2-(6-methoxy-quinolin-4-yl-ethyl]-piperidin-4-ylamino)-acetamide dioxalate]
20 | ≤ 32 | COc1ccc2nccc(NC(=O)N3CCC(NCC(=O)Nc4ccccc4)C(CO)C3)c2c1 (racemic) [Example 6, cis-3-(R/S)-Hydroxymethyl-4-(S/R)-(phenylcarbamoylmethyl-amino)-piperidine-1-carboxylic acid (6-methoxy-quinolin-4-yl)-amide oxalate]
21 | ≤ 0.25 | CCOC(=O)C1CN(C[C@H](O)c2ccnc3ccc(OC)cc23)CCC1NCC(=O)Nc1ccccc1 (mixture of isomers) [Example 2, cis-2-{1-[2-(R)-Hydroxy-2-(6-methoxy-quinolin-4-yl)-ethyl]-3-(R/S)-ethoxycarbonyl-piperidin-4-(S/R)-ylamino}-N-phenyl-acetamide dioxalate]
22 | ≤ 0.25 | COc1ccc2nccc([C@@H](O)CN3CCC(NC/C=C/c4nccs4)CC3)c2n1 [Example 73, 4-[trans-1-(2-Thiazolyl)-3-propenyl]amino-1-[2-(R)-hydroxy-2-(6-methoxy-[1,5]-naphthyridin-4-yl)]ethylpiperidine dimethanesulphonate]
23 | ≤ 2 | COc1ccc2nccc([C@@H](O)CN3CCC(NC(=O)/C=C/c4ccco4)CC3)c2c1 [Example 72, (E)-3-Furan-2-yl-N-{1-[(R)-2-hydroxy-2-(6-methoxyquinolin-4-yl)-ethyl]-piperidin-4-yl}-acrylamide oxalate]
24 | ≤ 2 | COc1ccc2nccc([C@@H](O)CN3CCC(CO)(NCC(=O)Nc4ccccc4)CC3)c2c1 [Example 38, 2-{1-[2-(R)-Hydroxy-2-(6-methoxy-quinolin-4-yl)-ethyl]-4-hydroxymethyl-piperidin-4-ylamino}-N-phenyl-acetamide dioxalate]
25 | ≤ 32 | COC(=O)C1(NCC(=O)Nc2ccccc2)CCN(C[C@H](O)c2ccnc3ccc(OC)cc23)CC1.O=C(O)C(=O)O.O=C(O)C(=O)O [Example 37, 2-{1-[2-(R)-Hydroxy-2-(6-methoxy-quinolin-4-yl)-ethyl]-4-methoxycarbonyl-piperidin-4-ylamino)-N-phenyl-acetamide dioxalate]
